Reference: patent publication US12077503B2, “Substituted cyclic amides and their use as herbicides” (FMC CORPORATION, priority 2015, dated 2024)
Where two headings read alike, the source gives them in different places.

Assays:
Assay type in all cases: in vivo
[1] = system: Galium (catchweed bedstraw, Galium aparine); assay: Test A postemergence; details: Galium, post-emergence, 240 h; for pest or weed control at 125 g/ha: 125 g ai/ha; for pest or weed control at 500 g/ha: 500 g ai/ha, visual injury, approx. 10 d
In short: (§1)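 Compounds were formulated in a non-phytotoxic solvent mixture with surfactant and applied as a preemergence directed soil spray after seeding, or sprayed postemergence over plants 2 to 10 cm tall at the one- to two-leaf stage. Evaluation after about 10 d compared treated with untreated controls, using a scale from 0 (no effect) to 100 (complete control).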

[2] = system: ryegrass, Italian (Italian ryegrass, Lolium multiflorum); assay: Test A postemergence; details: Lolium multiflorum, post-emergence, 240 h; for pest or weed control at 125 g/ha: 125 g ai/ha; for pest or weed control at 500 g/ha: 500 g ai/ha, visual injury, approx. 10 d
In short: as §1

[3] = system: giant foxtail (Setaria faberii); assay: Test A postemergence; details: Setaria faberi, post-emergence, 240 h; for pest or weed control at 125 g/ha: 125 g ai/ha; for pest or weed control at 500 g/ha: 500 g ai/ha, visual injury, approx. 10 d
In short: as §1

[4] = system: pigweed (Amaranthus retroflexus); assay: Test A postemergence; details: Amaranthus retroflexus, post-emergence, 240 h; for pest or weed control at 125 g/ha: 125 g ai/ha; for pest or weed control at 500 g/ha: 500 g ai/ha, visual injury, approx. 10 d
In short: as §1

[5] = system: corn (Zea mays); assay: Test A postemergence; details: Zea mays, post-emergence, 240 h; for Corn plant response rating (crop injury, 0 = no effect, 100 = complete kill) at 125 g/ha / plant injury at 125 g/ha: 125 g ai/ha; for Corn plant response rating (crop injury, 0 = no effect, 100 = complete kill) at 125 g/ha: postemergence, visual injury after approximately 10 d; for Corn plant response rating (crop injury, 0 = no effect, 100 = complete kill) at 125 g/ha / Corn plant response rating (crop injury, 0 = no effect, 100 = complete kill) at 500 g/ha: 0 to 100 scale (0 no effect, 100 complete control); for plant injury at 125 g/ha / Corn plant response rating (crop injury, 0 = no effect, 100 = complete kill) at 500 g/ha: Postemergence; for plant injury at 125 g/ha: visual rating about 10 d after treatment, read-out: Corn plant response rating (0 to 100 scale); for Corn plant response rating (crop injury, 0 = no effect, 100 = complete kill) at 500 g/ha: 500 g ai/ha, visual injury, approx. 10 d
In short: as §1

[6] = system: blackgrass (Alopecurus myosuroides); assay: Test A postemergence; details: Alopecurus myosuroides, post-emergence, 240 h; for pest or weed control at 125 g/ha: 125 g ai/ha; for pest or weed control at 500 g/ha: 500 g ai/ha, visual injury, approx. 10 d
In short: as §1

[7] = system: ragweed (common ragweed, Ambrosia elatior); assay: Test A postemergence; details: Ambrosia artemisiifolia, post-emergence, 240 h; for pest or weed control at 125 g/ha: 125 g ai/ha; for pest or weed control at 500 g/ha: 500 g ai/ha, visual injury, approx. 10 d
In short: as §1

[8] = system: Kochia (Kochia scoparia); assay: Test A postemergence; details: Bassia scoparia, post-emergence, 240 h, 125 g ai/ha, postemergence; visual injury after approximately 10 d; 0 to 100 scale (0 no effect, 100 complete control); read-out: Plant response rating, Kochia
In short: as §1

[9] = system: barnyardgrass (Echinochloa crus-galli); assay: Test A postemergence; details: Echinochloa crus-galli, post-emergence, 240 h; for pest or weed control at 125 g/ha: 125 g ai/ha; for pest or weed control at 500 g/ha: 500 g ai/ha, visual injury, approx. 10 d
In short: as §1

[10] = system: ducksalad (Heteranthera limosa); assay: Test B flooded paddy test; details: Heteranthera limosa, Flood, 250 g ai/ha
In short: (§2)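 2-leaf plants; pots flooded 3 cm over soil; cpd added to paddy water; depth held; greenhouse 13–15 d; visual rating vs controls, 0 = no effect, 100 = complete control.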

[11] = system: sedge, umbrella (small-flower umbrella sedge, Cyperus difformis); assay: Test B flooded paddy test; details: Cyperus difformis, Flood, 250 g ai/ha
In short: as §2

[12] = system: rice (Oryra sativa); assay: Test B flooded paddy test; details: Oryza sativa, Flood, 250 g ai/ha
In short: as §2

[13] = system: barnyardgrass (Echinochloa crus-galli); assay: Test B flooded paddy test; details: Echinochloa crus-galli, Flood, 250 g ai/ha
In short: as §2

[14] = system: wheat (Triticum aestivum); assay: Test A postemergence; details: Triticum aestivum, post-emergence, 240 h, Postemergence; for plant injury at 125 g/ha: 125 g ai/ha, visual rating about 10 d after treatment, read-out: Wheat plant response rating (0 to 100 scale); for plant injury at 500 g/ha: 500 g ai/ha, visual injury, 0 to 100 scale (0 no effect, 100 complete control), approx. 10 d, read-out: Plant response rating, Wheat
In short: as §1

[15] = postemergence, visual injury after approximately 10 d, 0 to 100 scale (0 no effect, 100 complete control), read-out: Plant response rating, Galium
[16] = postemergence, visual injury after approximately 10 d, 0 to 100 scale (0 no effect, 100 complete control), read-out: Plant response rating, Ryegrass, Italian
[17] = postemergence, visual injury after approximately 10 d, 0 to 100 scale (0 no effect, 100 complete control), read-out: Plant response rating, Foxtail, Giant
[18] = postemergence, visual injury after approximately 10 d, 0 to 100 scale (0 no effect, 100 complete control), read-out: Plant response rating, Pigweed
[19] = postemergence, visual injury after approximately 10 d, 0 to 100 scale (0 no effect, 100 complete control), read-out: Plant response rating, Blackgrass
[20] = postemergence, visual injury after approximately 10 d, 0 to 100 scale (0 no effect, 100 complete control), read-out: Plant response rating, Ragweed
[21] = postemergence, visual injury after approximately 10 d, 0 to 100 scale (0 no effect, 100 complete control), read-out: Plant response rating, Barnyardgrass
[22] = scale of 0 to 100 where 0 is no effect and 100 is complete control, read-out: Ducksalad plant response rating
[23] = scale of 0 to 100 where 0 is no effect and 100 is complete control, read-out: Sedge, Umbrella plant response rating
[24] = scale of 0 to 100 where 0 is no effect and 100 is complete control, read-out: Rice plant response rating
[25] = scale of 0 to 100 where 0 is no effect and 100 is complete control, read-out: Barnyardgrass plant response rating
[26] = Postemergence, visual rating about 10 d after treatment, read-out: Galium plant response rating (0 to 100 scale)
[27] = Postemergence, 0 to 100 scale (0 no effect, 100 complete control), read-out: Plant response rating, Galium
[28] = Postemergence, visual rating about 10 d after treatment, read-out: Ryegrass, Italian plant response rating (0 to 100 scale)
[29] = Postemergence, 0 to 100 scale (0 no effect, 100 complete control), read-out: Plant response rating, Ryegrass, Italian
[30] = Postemergence, visual rating about 10 d after treatment, read-out: Foxtail, Giant plant response rating (0 to 100 scale)
[31] = Postemergence, 0 to 100 scale (0 no effect, 100 complete control), read-out: Plant response rating, Foxtail, Giant
[32] = Postemergence, visual rating about 10 d after treatment, read-out: Pigweed plant response rating (0 to 100 scale)
[33] = Postemergence, 0 to 100 scale (0 no effect, 100 complete control), read-out: Plant response rating, Pigweed
[34] = Postemergence, visual rating about 10 d after treatment, read-out: Blackgrass plant response rating (0 to 100 scale)
[35] = Postemergence, 0 to 100 scale (0 no effect, 100 complete control), read-out: Plant response rating, Blackgrass
[36] = Postemergence, visual rating about 10 d after treatment, read-out: Ragweed plant response rating (0 to 100 scale)
[37] = Postemergence, 0 to 100 scale (0 no effect, 100 complete control), read-out: Plant response rating, Ragweed
[38] = Postemergence, visual rating about 10 d after treatment, read-out: Barnyardgrass plant response rating (0 to 100 scale, 0 no effect, 100 complete control)
[39] = Postemergence, 0 to 100 scale (0 no effect, 100 complete control), read-out: Plant response rating, Barnyardgrass

SMILES	pest or weed control at 125 g/ha [1, 15] [%]	pest or weed control at 125 g/ha [2, 16] [%]	pest or weed control at 125 g/ha [3, 17] [%]	pest or weed control at 125 g/ha [4, 18] [%]	Corn plant response rating (crop injury, 0 = no effect, 100 = complete kill) at 125 g/ha [5] [%]	pest or weed control at 125 g/ha [6, 19] [%]	pest or weed control at 125 g/ha [7, 20] [%]	pest or weed control at 125 g/ha [8] [%]	pest or weed control at 125 g/ha [9, 21] [%]	pest or weed control at 250 g/ha [10, 22] [%]	pest or weed control at 250 g/ha [11, 23] [%]	pest or weed control at 250 g/ha [12, 24] [%]	pest or weed control at 250 g/ha [13, 25] [%]	pest or weed control at 125 g/ha [1, 26] [%]	pest or weed control at 500 g/ha [1, 27] [%]	pest or weed control at 125 g/ha [2, 28] [%]	pest or weed control at 500 g/ha [2, 29] [%]	pest or weed control at 125 g/ha [3, 30] [%]	pest or weed control at 500 g/ha [3, 31] [%]	plant injury at 125 g/ha [14] [%]	other results
Cc1cc([C@H]2CNC(=O)[C@@H]2C(=O)Nc2ccccc2F)ccc1Cl [Compound 789]	40	0	30	0	20	40	0	0	80	100	0	0	20								
Cc1cc([C@H]2CNC(=O)[C@@H]2C(=O)Nc2cccc(F)c2F)ccc1Cl [Compound 790]	50	0	50	20	30	40	30	40	80	100	0	0	40								
CN1CC(c2cccc(OCC=C(Cl)Cl)c2)C(C(=O)Nc2cccc(F)c2F)C1=O (stereo not shown) [Compound 1303]														0	0	0	0	40	60	0	plant injury at 500 g/ha [14]: 0%; pest or weed control at 125 g/ha [4, 32]: 0%; pest or weed control at 500 g/ha [4, 33]: 0%; plant injury at 125 g/ha [5]: 0%; Corn plant response rating (crop injury, 0 = no effect, 100 = complete kill) at 500 g/ha [5]: 0%; pest or weed control at 125 g/ha [6, 34]: 0%; pest or weed control at 500 g/ha [6, 35]: 0%; pest or weed control at 125 g/ha [7, 36]: 0%; pest or weed control at 500 g/ha [7, 37]: 0%; pest or weed control at 125 g/ha [9, 38]: 0%; pest or weed control at 500 g/ha [9, 39]: 30%; pest or weed control at 250 g/ha ([10]; 0 to 100 scale where 0 is no effect and 100 is complete control, read-out: Ducksalad plant response rating): 0%; pest or weed control at 250 g/ha ([11]; 0 to 100 scale where 0 is no effect and 100 is complete control, read-out: Sedge, Umbrella plant response rating): 0%; pest or weed control at 250 g/ha ([12]; 0 to 100 scale where 0 is no effect and 100 is complete control, read-out: Rice plant response rating): 0%; pest or weed control at 250 g/ha ([13]; 0 to 100 scale where 0 is no effect and 100 is complete control, read-out: Barnyardgrass plant response rating): 0%
Cc1ccc([C@H]2CN(C)C(=O)[C@@H]2C(=O)Nc2ccc(F)c(F)c2F)cc1 [Compound 1378]														60	70	40	60	80	90	60	plant injury at 500 g/ha [14]: 70%; pest or weed control at 125 g/ha [4, 32]: 30%; pest or weed control at 500 g/ha [4, 33]: 70%; plant injury at 125 g/ha [5]: 80%; Corn plant response rating (crop injury, 0 = no effect, 100 = complete kill) at 500 g/ha [5]: 80%; pest or weed control at 125 g/ha [6, 34]: 30%; pest or weed control at 500 g/ha [6, 35]: 40%; pest or weed control at 125 g/ha [7, 36]: 40%; pest or weed control at 500 g/ha [7, 37]: 70%; pest or weed control at 125 g/ha [9, 38]: 80%; pest or weed control at 500 g/ha [9, 39]: 80%; pest or weed control at 250 g/ha ([10]; 360 h, visually evaluated after 13 to 15 d, read-out: Plant response rating, Ducksalad (0 to 100 scale where 0 is no effect and 100 is complete control)): 95%; pest or weed control at 250 g/ha ([11]; 360 h, visually evaluated after 13 to 15 d, read-out: Plant response rating, Sedge, Umbrella (0 to 100 scale where 0 is no effect and 100 is complete control)): 0%; pest or weed control at 250 g/ha ([12]; 360 h, visually evaluated after 13 to 15 d, read-out: Plant response rating, Rice (0 to 100 scale where 0 is no effect and 100 is complete control)): 45%; pest or weed control at 250 g/ha ([13]; 360 h, visually evaluated after 13 to 15 d, read-out: Plant response rating, Barnyardgrass (0 to 100 scale where 0 is no effect and 100 is complete control)): 85%
